Measured values taken from patent US20110014273A1, “Method of Treating BCC” (priority 2009, published 2011).
In brackets after ≈: the same amount, converted by molar mass.

Legend:
[1] = test system: P. aeruginosa ATCC 27853; conditions: at 35° C.; cited from earlier work
[2] = test system: B. cepacia ATCC 25608; conditions: at 35° C.; cited from earlier work
[3] = test system: P. aeruginosa MMX 1609; conditions: at 35° C.; cited from earlier work
[4] = test system: P. aeruginosa ATCC 27853; assay: Susceptibility testing (MIC at 35° C.); type: cell-based; conditions: Pseudomonas aeruginosa, ATCC27853
Method: (§1) From a previous susceptibility testing experiment, the liposomal test batches and control tobramycin MIC values are shown in Table 5 below. The time-kill test is conducted using the test agents shown in bold print in Table 5: [table]

[5] = test system: P. aeruginosa MMX 1609; assay: Susceptibility testing (MIC at 35° C.); type: cell-based; conditions: Pseudomonas aeruginosa, MMX1609
Method: as §1

[6] = test system: B. cepacia ATCC 25608; assay: Susceptibility testing (MIC at 35° C.); type: cell-based; conditions: Burkholderia cepacia, ATCC25608
Method: as §1

SMILES	MIC, CLSI QC range [1]	MIC, CLSI QC range [2]	MIC, CLSI QC range [3]	MIC [4]	MIC [5]	MIC [6]
NC[C@H]1O[C@H](O[C@H]2[C@H](O)[C@@H](O[C@H]3O[C@H](CO)[C@@H](O)[C@H](N)[C@H]3O)[C@H](N)C[C@@H]2N)[C@H](N)C[C@@H]1O [tobramycin]	0.25 to 1 µg/mL	(0.12-1) μg/mL	(0.25-1) μg/mL			
NC[C@H]1O[C@H](O[C@H]2[C@H](O)[C@@H](O[C@H]3O[C@H](CO)[C@@H](O)[C@H](N)[C@H]3O)[C@H](N)C[C@@H]2N)[C@H](N)C[C@@H]1O [Free tobramycin (Sigma), tobramycin]				0.5 µg/mL (≈ 1.07 µM)	0.5 µg/mL (≈ 1.07 µM)	> 64 µg/mL
